Reference: US20260049064A1, “PROTEIN:PROTEIN INTERACTION INHIBITORS” (Purdue Research Foundation, priority 2022, published 2026)

Legend:
Type in all cases: cell-based
COS-1 cells = assay: Cell death seen in COS-1 cells during the BiFC screen; details: 10 μM
Procedure: BiFC Drug Screens: COS-1 cells were grown in DMEM and seeded to 50,000 cells/well of a 12-well plate and allowed to attach for 24 hours. Cells were then transfected with three plasmids pMyc-VN155-PRMT5, pHA-VC-MEP50, and pFLAG-NLS-CFP to visualize the interaction between PRMT5:MEP50. For BiFC screens, the COS-1 cells were treated with compound or DMSO to final concentration (10 μM for compound 1-12 screen and 0.25, 0.50, 0.75, 1.0, and 5.0 μM or subsequent compound 8 screen) six hours after transfection and returned to the incubator. Following 24 hours after transfection, cells were imaged on a Nikon TE-2000U microscope and images for CFP, YFP, and phase contrast were acquired using MetaMorph software (Nikon) with 20× objective. Images were analyzed with ImageJ^70. Regions of Interest (ROI) were selected around each cell, and mean intensity was measured for each selection. A YFP:CFP ratio was calculated for DMSO as well as control treatment cells. The YFP:CFP ratio was then normalized to that of DMSO to generate the BiFC Efficiency score. The lower score indicated less PRMT5:MEP50 PPI detected in a given cell or treatment group. Inhibition (% Inhibition) is calculated as a percent of 100%−the BiFC Efficiency. […]

LNCaP cells = assay: MTT assay / growth of LNCaP cells; details: for IC50: 72 hours treatment
Procedure: LNCaP cells were seeded at 7,000 cells per well of a 96-well cell culture plate and incubated 24 hours to allow for attachment. Test compounds were diluted in RPMI-1640/25% DMSO pre-dilutions and added to respective wells of the assay plate to maintain constant concentration of 0.25% DMSO. After addition of compounds, cells were returned to incubator (37° C., 5% CO2) for 72 hours. Following incubation, assay plates were removed from incubator and media aspirated. 30 μL complete RPMI supplemented with 0.5 mg/mL MTT (Sigma) was added to the plate, and plate returned to incubator for 4 hours. Plates were removed, and 88 μL DMSO was added. Plates were shaken at 700 rpm for 1 minute and read on spectrophotometer at 570 nm.

[1] = target: T1, PRMT5:MEP50 protein-protein interaction (Homo sapiens, UniProt O14744); assay: BiFC drug screen of PRMT5:MEP50 interaction in COS-1 cells; parameters: expressed in transfected cells; host or cells: COS-1; details: for rank in BiFC screen (inhibition of PRMT5:MEP50): 18 hours
T1 sequence (O14744 whole entry): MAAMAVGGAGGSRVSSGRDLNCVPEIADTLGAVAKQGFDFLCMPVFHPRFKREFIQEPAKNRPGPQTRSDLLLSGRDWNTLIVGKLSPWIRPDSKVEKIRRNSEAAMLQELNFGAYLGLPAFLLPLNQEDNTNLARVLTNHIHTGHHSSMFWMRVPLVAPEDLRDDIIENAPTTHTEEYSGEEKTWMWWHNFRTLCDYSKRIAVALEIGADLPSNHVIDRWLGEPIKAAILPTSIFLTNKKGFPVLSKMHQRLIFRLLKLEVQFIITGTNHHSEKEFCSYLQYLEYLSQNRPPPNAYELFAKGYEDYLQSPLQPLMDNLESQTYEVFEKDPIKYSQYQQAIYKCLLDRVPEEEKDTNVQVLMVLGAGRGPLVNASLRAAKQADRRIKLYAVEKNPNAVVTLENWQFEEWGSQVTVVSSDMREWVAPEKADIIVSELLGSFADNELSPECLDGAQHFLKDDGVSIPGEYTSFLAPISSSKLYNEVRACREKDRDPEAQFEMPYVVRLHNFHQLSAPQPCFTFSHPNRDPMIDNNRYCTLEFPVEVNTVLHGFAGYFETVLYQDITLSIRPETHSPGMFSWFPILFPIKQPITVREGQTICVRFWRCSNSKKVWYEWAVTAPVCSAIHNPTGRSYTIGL
Procedure: BiFC Drug Screens: COS-1 cells were grown in DMEM and seeded to 50,000 cells/well of a 12-well plate and allowed to attach for 24 hours. Cells were then transfected with three plasmids pMyc-VN155-PRMT5, pHA-VC-MEP50, and pFLAG-NLS-CFP to visualize the interaction between PRMT5:MEP50. For BiFC screens, the COS-1 cells were treated with compound or DMSO to final concentration (10 μM for compound 1-12 screen and 0.25, 0.50, 0.75, 1.0, and 5.0 μM or subsequent compound 8 screen) six hours after transfection and returned to the incubator. Following 24 hours after transfection, cells were imaged on a Nikon TE-2000U microscope and images for CFP, YFP, and phase contrast were acquired using MetaMorph software (Nikon) with 20× objective. Images were analyzed with ImageJ^70. Regions of Interest (ROI) were selected around each cell, and mean intensity was measured for each selection. A YFP:CFP ratio was calculated for DMSO as well as control treatment cells. The YFP:CFP ratio was then normalized to that of DMSO to generate the BiFC Efficiency score. The lower score indicated less PRMT5:MEP50 PPI detected in a given cell or treatment group. Inhibition (% Inhibition) is calculated as a percent of 100%−the BiFC Efficiency. Referring to FIGS. 6A-6C, for the BiFC screen of compounds 13-22 (including 8a and 8b), COS-1 cells were transfected for 24 hours, treated with 0.5 μM of compounds for 18 hours, and then imaged as described above. Referring to FIG. 6C, for the BiFC screen of compounds 23-26 (including 8a and 8b), COS-1 cells were transfected for 24 hours, treated with […] of compounds for 18 hours, and then imaged as described above. BiFC drug screens were performed in single biological replicate as a high throughput screen to produce ranked order of compounds, although multiple biological replicate data was used whenever available.

[2] = target: T1, PRMT5:MEP50 protein-protein interaction; assay: Co-immunoprecipitation western blot in LNCaP cells; details: 500 nM, 24 hrs, three biological replicates
Procedure: LNCaP cells were treated with either DMSO or compound 17 (500 nM, 24 hrs) and harvested for Co-IP and WB in lysis buffer composed of 50 mM Tris-HCl, pH 7.4, 100 mM NaCl, 10 mM EDTA, 0.1% Triton X-100, 1 mM DTT, 1 mM PMSF, and 5 μg each of chymostatin, leupeptin, pepstatin A, and […]. Cells were lysed over 1 hour rotating in 4° C. and supernatant cleared. Total lysate (1 mg/mL) was used for Co-IP with 4 μg rabbit anti-PRMT5 pAb (Millipore Sigma 07-405), rabbit anti-MEP50 pAb (Cell Signaling Technologies S2823S) or normal rabbit IgG (Millipore Sigma N01-100 UG) overnight. Antibody-bound proteins were precipitated with Pierce Protein A agarose beads (Thermo Scientific 20333). Antibodies and immunoprecipitated proteins were prepared for western blot by adding 50 μL 2×SDS buffer, boiling at 95° C. for 5 min, and storing at -80° C. or proceeding to western blot. Co-IP product, input sample, or ladder were loaded into a 10% acrylamide/bisacrylamide gel (20 μL Co-IP, 20 μL input (0.4% total), 5 μL ladder per lane). […] Band Intensity was determined with ImageLab software and ImageJ.

A549 cells = assay: IC50 in A549 NSCLC cell line; details: 72 hours treatment
H4R3me2s = assay: Global histone H4R3me2s western blot in LNCaP cells; details: 72 hours
Procedure: For global histone H4R3 and H4R3me2s western blots, cell lysate was prepared in RIPA buffer (10 mM Tris-HCl pH 8.0, 5 mM EDTA, 1% Triton X-100, 0.1% sodium deoxycholate, 0.1% sodium dodecyl sulfate, 150 mM sodium chloride, and 5 μg/mL each chymostatin, leupeptin, pepstatin A, and antipan in DMSO, with 1 mM PMSF and total soluble protein was quantified using Bradford assay. 100 μL lysate was combined with 100 μL 2×SDS buffer, and 20 μg total lysate was loaded into the wells of a 15% acrylamide/bisacrylamide gel. The gel was run for 60 min at 125 V and transferred onto nitrocellulose membrane for 45 min at 100 V. Anti-H4R3 rabbit pAb (Abcam, ab10158) or anti-H4R3me2s rabbit pAb (Abcam, ab5823) was diluted 1:1000 in PBST and incubated overnight at 4° C. Secondary IRDyeR 800CW Donkey anti-Rabbit IgG Secondary Antibody (Li-Cor, 926-32213) was diluted 1:20,000 in PBST and incubated with the membrane, which was then imaged via LiCor Odyssey CLx imager and analyzed with ImageStudioLite software (Li-Cor). Integrated intensity of H4R3me2s band was normalized to H4R3 to determine relative abundance of H4R3me2s across DMSO and Cpd 17-treated samples.

Involucrine (IVL) gene = assay: RT-qPCR expression of IVL in LNCaP cells; details: 500 nM, 72 hours
Procedure: (§1) LNCaP cells were seeded to either 6 cm or 10 cm dishes at 800,000 or 2,200,000 cells/dish respectively. Cells were allowed to attach for 24 hours and then subsequently treated with either compound 17 (500 nM) or DMSO for 72 hours. Cells were then harvested with Trizol reagent (Ambion) and RNA integrity was verified via agarose gel electrophoresis. […] was utilized following manufacturer instructions and as described previously, as described in Deng et al., Oncogene 2017, 36 (9), 1223-123; Hsu et al., Mol. Cell. Endocrinol. 2013, 372 (1-2), 12-221; and Zhang et al., Biochim. Biophys. Acta 2014, 1839 (11), 1330-1340, each of which is incorporated herein by reference in its entirety for its teachings regarding same. RT-qPCR was performed with FastStart Universal SYBR Green Master Mix (Thermo Fisher Scientific) and detected on a QuantStudio 6 Flex with QuantStudio Real-Time PCR control software (Thermo Fisher Scientific). QuantStudio Design and Analysis software (Thermo Fisher Scientific) was used for data analysis. Technical triplicates were run for all samples, samples without detectable amplification were deemed undetected. Primer sets were validated via melt curve and agarose gel analysis of RT-qPCR product. AR primers were used as described in Deng et al., Oncogene 2017, 36 (9), 1223-123. […]

[3] = test system: androgen receptor (AR) gene; assay: RT-qPCR expression of AR in LNCaP cells; details: 500 nM, 72 hours
Procedure: as §1

PTEN = assay: RT-qPCR expression of PTEN in LNCaP cells; details: 500 nM, 72 hours
Procedure: as §1

RB1 = assay: RT-qPCR expression of RB1 in LNCaP cells; details: 500 nM, 72 hours
Procedure: as §1

TP53 = assay: RT-qPCR expression of TP53 in LNCaP cells; details: 500 nM, 72 hours
Procedure: as §1

Row | Structure (SMILES) | cell death on treatment in the BiFC assay (COS-1 cells) | IC50 (LNCaP cells; Homo sapiens, LNCaP, 72 h) [nM] | inhibition at 0.25 µM ([1]; 0.25 μM, read-out: inhibition of the BiFC efficiency) [%] | rank in BiFC screen (inhibition of PRMT5:MEP50) ([1]; 500 nM) | dose-response of BiFC efficiency inhibition ([1]; 0.25-5 μM) | decrease in amount of MEP50 co-immunoprecipitated with PRMT5 bait [2] [%] | IC50 (LNCaP cells) [nM] | suppression of growth and induction of cell death (LNCaP cells; LNCaP cells, 250 nM, 500 nM and 1000 nM, 72 hours) | IC50 (A549 cells) [nM] | IC50 (A549 cells; Homo sapiens, A549, 72 h) [nM] | dose dependence of global H4R3me2s levels (H4R3me2s; LNCaP cells, 250, 500 and 1000 nM) | decrease of global H4R3me2s (H4R3me2s; LNCaP cells) [%] | expression of PRMT5:MEP50-regulated IVL gene (Involucrine (IVL) gene) | expression of PRMT5:pICln-regulated AR gene [3] | expression of PTEN (PTEN) | expression of RB1 (RB1) | expression of TP53 (TP53) | rank in BiFC screen (inhibition of PRMT5:MEP50) ([1]; 250 nM)
1 | Cc1noc(C)c1COc1cccc(C(=O)NNC(=O)c2ccc3ccccc3n2)c1 [compound 8, N′-(3-((3,5-dimethylisoxazol-4-yl)methoxy)benzoyl)quinoline-2-carbohydrazide] | significant cell death | 1660 | 41 | top four inhibitors | dose-dependent manner |  |  |  |  |  |  |  |  |  |  |  |  | 
2 | Cc1noc(C)c1COc1cccc(C(=O)NNC(=O)c2ccc(C(F)(F)F)cn2)c1 [compound 15, N′-(3-((3,5-dimethylisoxazol-4-yl)methoxy)benzoyl)-5-(trifluoromethyl)picolinohydrazide] |  |  |  | top four inhibitors |  |  |  |  |  |  |  |  |  |  |  |  |  | 
3 | CCc1noc(C)c1COc1cccc(C(=O)NNC(=O)c2ccc3ccccc3n2)c1 [compound 17, N′-(3-((3-ethyl-5-methylisoxazol-4-yl)methoxy)benzoyl)quinoline-2-carbohydrazide] |  | < 450 |  | top four inhibitors |  | 65.4 | 430 | both suppression of growth and induction of cell death in a dose-dependent manner | 447 | < 450 | decreased in a dose-dependent manner | 65 | significantly de-represses | without significantly altering expression | upregulation | upregulation | to some extent TP53, albeit statistically insignificant | most effective
